Tests used:
hERG = hERG (Homo sapiens, UniProt Q12809)
Description: Tissue distribution *From the literature.
Hear Liver Spleen LungKidney Brain Uteru Ovar TestisPlasma
Compound Maximum concentration (μM) Inhibition rate of maximumconcentration IC 50 (μM) […]

FRK = FRK (Homo sapiens, UniProt P42685); test: Protein kinase panel at 1 µM, FRK; type: biochemical
TMD8 = test: Cell viability assay (CellTiter-Blue), TMD8; type: cell-based, human; conditions: TMD8 cells; read-out: IC50 (nM), growth of TMD8
Description: (§1) Cells were seeded on 96-well plates (9,000 cells/well), cultured at 37 °C in 5% CO2 overnight, and incubated with different concentrations of compounds for 3 or 7 days. Then the cells were stained with CellTiter-Blue® reagent (Promega) for 4 h at 37 °C. The fluorescence signals were detected with a FlexStation 3, and the IC50 values of each compound were determined with GraFit software (Version 6.0).

ITK = ITK (Homo sapiens, UniProt Q08881); test: HTRF assay of ITK activity
ITK, sequence (Q08881 whole entry): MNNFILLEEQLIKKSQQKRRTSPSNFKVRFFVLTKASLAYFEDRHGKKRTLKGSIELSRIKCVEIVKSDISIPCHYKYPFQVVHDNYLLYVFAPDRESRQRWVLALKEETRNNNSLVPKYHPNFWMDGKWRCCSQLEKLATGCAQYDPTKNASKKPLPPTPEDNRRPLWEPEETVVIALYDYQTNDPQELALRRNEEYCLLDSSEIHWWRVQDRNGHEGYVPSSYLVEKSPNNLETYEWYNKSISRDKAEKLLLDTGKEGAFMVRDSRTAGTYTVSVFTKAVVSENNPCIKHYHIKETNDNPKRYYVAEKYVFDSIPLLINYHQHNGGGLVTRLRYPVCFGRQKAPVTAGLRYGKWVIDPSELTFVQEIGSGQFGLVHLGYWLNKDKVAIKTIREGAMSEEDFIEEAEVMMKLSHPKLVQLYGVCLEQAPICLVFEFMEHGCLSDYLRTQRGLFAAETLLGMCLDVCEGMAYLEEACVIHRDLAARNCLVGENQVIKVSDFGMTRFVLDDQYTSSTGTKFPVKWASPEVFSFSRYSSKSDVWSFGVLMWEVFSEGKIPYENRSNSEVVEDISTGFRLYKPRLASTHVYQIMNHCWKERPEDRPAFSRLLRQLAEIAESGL
Description: (§5) Homogeneous time-resolved fluorescence (HTRF) assays were performed with a HTRF® KinEASE™-TK kit (Trevigen).

PTK6 = PTK6 (Homo sapiens, UniProt Q13882); test: Protein kinase panel at 1 µM, PTK6; type: biochemical
PTK6, sequence (Q13882 whole entry): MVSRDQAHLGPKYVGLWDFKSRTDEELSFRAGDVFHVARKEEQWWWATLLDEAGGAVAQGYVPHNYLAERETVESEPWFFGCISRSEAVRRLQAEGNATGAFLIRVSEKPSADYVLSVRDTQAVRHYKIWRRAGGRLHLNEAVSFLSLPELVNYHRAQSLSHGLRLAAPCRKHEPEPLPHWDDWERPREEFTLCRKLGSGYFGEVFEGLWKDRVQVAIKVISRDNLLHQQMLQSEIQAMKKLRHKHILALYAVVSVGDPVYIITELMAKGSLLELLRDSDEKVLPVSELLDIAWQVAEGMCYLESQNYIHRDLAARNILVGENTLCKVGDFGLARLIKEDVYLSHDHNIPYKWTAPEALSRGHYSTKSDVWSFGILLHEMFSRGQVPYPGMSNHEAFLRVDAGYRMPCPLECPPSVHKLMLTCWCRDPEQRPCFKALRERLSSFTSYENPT

TMD8 xenografts = test: TMD8 tumor xenograft in SCID mice; type: in vivo
Description: TMD8 cells (1.0 × 10^7 cells in 100 µL of serum-free medium containing 40% Matrigel) were injected subcutaneously into SCID mice (6–8 weeks of age), and the tumor volume was monitored twice per week. […] The compounds were formulated in 0.5% methylcellulose containing 0.1% sodium lauryl sulfate. Tumor size and body weight were measured twice per week. All experiments were approved by the institutional animal care and use committee of Shouyao Holdings and were performed in accordance with the guidelines in the U.S. National Institutes of Health Guide for the Care and Use of Laboratory Animals (Approval No. CTA-2015063).
Figure 5 SY-1530 inhibits B-cell malignancy in vivo. (A–D) TMD8 cells were injected subcutaneously into SCID mice (6–8 weeks of age; 8 mice per group). […] Tumor size (A) and body weight (B) were measured […]. On the last day, mice were sacrificed 2.5 h after administration. LC-MS/MS was performed to measure the concentration of SY-1530 in plasma (C), and tumor samples were collected and analyzed with Western blot (D). QD represents administration once daily. Data are shown as mean ± SEM. Statistical analysis was performed with two-way analysis of variance (*P < 0.05; **P < 0.01; ***P < 0.001). […] Tumor size (E), body weight (F), SY-1530 concentration in the plasma (G), and protein expression in tumors (H) were measured. Data are shown as mean ± SEM. Statistical analysis was performed with two-way analysis of variance (*P < 0.05; **P < 0.01; ***P < 0.001).

T cell = test: Cell viability assay (CellTiter-Blue), human T cells; type: cell-based; conditions: read-out: IC50 (nM), growth of T cell
Description: as §1
CD19^+ B (>80% purity) and CD3^+ T (>90% purity) cells were purified with human B cell enrichment cocktail and human T cell enrichment cocktail (Stem Cell Technology), respectively. Cells were seeded on 12-well plates and incubated with different concentrations of BTK inhibitors for 1 h. B cells were stimulated with 50 µg/mL anti-human IgM F(ab′)2, and T cells were stimulated with 50 µg/mL anti-CD3/CD28 beads overnight. In the washout groups, the cell medium containing the indicated inhibitors was replaced with fresh medium before stimulation. Then cells were then incubated with anti-human CD69 for 1 h and analyzed with a Guava flow cytometer.

FLT3 = FLT3 (Homo sapiens, UniProt P36888); test: Protein kinase panel at 1 µM, FLT3; type: biochemical
BMX = BMX (Homo sapiens, UniProt P51813); test: HTRF kinase assay, BMX
BMX, sequence (P51813 whole entry): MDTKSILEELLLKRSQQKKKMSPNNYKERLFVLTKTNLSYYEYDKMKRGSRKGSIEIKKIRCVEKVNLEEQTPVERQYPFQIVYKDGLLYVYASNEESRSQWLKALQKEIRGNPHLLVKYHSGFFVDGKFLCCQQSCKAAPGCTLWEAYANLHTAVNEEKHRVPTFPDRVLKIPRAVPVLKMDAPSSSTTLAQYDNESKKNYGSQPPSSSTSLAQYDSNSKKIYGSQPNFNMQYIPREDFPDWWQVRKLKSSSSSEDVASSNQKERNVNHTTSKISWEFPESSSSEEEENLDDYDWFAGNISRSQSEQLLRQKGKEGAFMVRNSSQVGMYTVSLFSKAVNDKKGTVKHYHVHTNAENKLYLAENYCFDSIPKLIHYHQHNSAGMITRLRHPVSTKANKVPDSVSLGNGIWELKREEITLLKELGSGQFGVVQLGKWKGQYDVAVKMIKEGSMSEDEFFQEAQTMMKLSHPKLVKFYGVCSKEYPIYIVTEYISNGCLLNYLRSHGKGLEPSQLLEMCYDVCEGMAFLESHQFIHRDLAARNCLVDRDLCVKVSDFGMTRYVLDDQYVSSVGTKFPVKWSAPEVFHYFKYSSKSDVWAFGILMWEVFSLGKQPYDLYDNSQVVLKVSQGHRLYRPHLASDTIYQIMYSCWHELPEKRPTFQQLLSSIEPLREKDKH
Description: as §5

EGFR = EGFR (Homo sapiens, UniProt P00533); test: HTRF kinase assay, EGFR
EGFR, sequence (P00533 25-1210): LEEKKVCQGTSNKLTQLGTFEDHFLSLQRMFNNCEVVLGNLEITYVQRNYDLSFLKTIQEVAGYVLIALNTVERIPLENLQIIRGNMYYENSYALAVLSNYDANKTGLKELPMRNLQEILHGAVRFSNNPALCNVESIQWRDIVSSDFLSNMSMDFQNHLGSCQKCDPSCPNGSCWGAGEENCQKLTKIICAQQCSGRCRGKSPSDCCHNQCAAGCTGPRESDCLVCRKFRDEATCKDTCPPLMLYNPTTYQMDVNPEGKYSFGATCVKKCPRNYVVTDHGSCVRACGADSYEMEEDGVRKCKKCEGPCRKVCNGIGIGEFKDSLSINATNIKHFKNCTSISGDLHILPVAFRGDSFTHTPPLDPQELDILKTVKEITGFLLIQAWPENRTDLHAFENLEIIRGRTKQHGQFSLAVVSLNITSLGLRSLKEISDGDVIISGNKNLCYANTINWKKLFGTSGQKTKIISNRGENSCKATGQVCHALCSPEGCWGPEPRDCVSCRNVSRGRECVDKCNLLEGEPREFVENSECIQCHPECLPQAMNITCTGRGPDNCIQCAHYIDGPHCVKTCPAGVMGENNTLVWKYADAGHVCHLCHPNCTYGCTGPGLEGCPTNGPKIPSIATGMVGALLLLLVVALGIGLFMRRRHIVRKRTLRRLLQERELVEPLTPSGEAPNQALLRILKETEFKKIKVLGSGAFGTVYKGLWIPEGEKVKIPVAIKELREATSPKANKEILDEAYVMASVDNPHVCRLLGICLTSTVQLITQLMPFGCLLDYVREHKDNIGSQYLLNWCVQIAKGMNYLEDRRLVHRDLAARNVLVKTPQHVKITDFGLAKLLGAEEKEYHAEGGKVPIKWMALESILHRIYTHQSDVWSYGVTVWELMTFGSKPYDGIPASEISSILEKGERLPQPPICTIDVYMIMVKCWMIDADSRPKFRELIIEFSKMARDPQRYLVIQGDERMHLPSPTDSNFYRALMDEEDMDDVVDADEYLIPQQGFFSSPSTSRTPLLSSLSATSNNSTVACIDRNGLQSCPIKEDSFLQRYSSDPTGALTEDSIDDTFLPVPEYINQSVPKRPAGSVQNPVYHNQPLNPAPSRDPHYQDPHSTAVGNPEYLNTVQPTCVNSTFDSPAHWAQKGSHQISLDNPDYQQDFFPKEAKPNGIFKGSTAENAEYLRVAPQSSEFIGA
Description: as §5

Pfeiffer = test: Cell viability assay (CellTiter-Blue), Pfeiffer; type: cell-based, human; conditions: Pfeiffer cells; read-out: IC50 (nM), growth of Pfeiffer
Description: as §1

[1] = dog
Rat = conditions: in vivo
Description: (§2) Table S9 Preclinical safety of SY-1530
(§3) Group Single-dose toxicity Multiple-dose toxicity
(§4) Animal Rat Beagle dog Rat Beagle dog

Beagle dog = conditions: in vivo
Description: as §2, §3, §4

Pfeiffer cells = test: Apoptosis detection (Annexin V / 7-AAD) in Pfeiffer cells; type: cell-based; conditions: 24 h, Annexin V and 7-AAD
Description: Apoptosis assays were performed with an Annexin V-PE Apoptosis Detection Kit I (BD Biosciences). Briefly, 5 × 10^5 Pfeiffer cells were seeded on 6-well plates and treated with BTK inhibitors at the indicated concentrations. After 24 h or 48 h, cells were collected and stained with PE Annexin V and 7-AAD according to the manufacturer’s instructions. FACS analysis was performed with a Guava flow cytometer.
Figure 4 SY-1530 blocks B-cell receptor signaling and induces apoptosis. (A–D) Human B and T cells were purified and incubated with different concentrations of BTK inhibitors for 1 h. B cells were stimulated with 50 μg/mL anti-human IgM F(ab′)2, and T cells were stimulated with 50 μg/mL anti-CD3/CD28 beads overnight directly or after washout of BTK inhibitors before stimulation. The percentage of CD69 positive cells was analyzed by flow cytometry. Data are shown as the mean ± SEM (n = 3). Statistical analysis was performed with Student’s t-test (*P < 0.05, **P < 0.01, ***P < 0.001). (E) Pfeiffer cells and Romas cells were preincubated with different concentrations of compounds for 1 h, washed with PBS, and then stimulated with anti-IgM/anti-IgG (10 μg/mL) for 10 min. Cells were lysed and analyzed by Western blot with the indicated antibodies. […] The cells were stained with both PE-Annexin and 7-AAD and analyzed by flow cytometry. […] Cells were lysed and analyzed with specific antibodies.

[2] = IC50 SY-1530 over IC50 ibrutinib

hERG, sequence (Q12809 whole entry): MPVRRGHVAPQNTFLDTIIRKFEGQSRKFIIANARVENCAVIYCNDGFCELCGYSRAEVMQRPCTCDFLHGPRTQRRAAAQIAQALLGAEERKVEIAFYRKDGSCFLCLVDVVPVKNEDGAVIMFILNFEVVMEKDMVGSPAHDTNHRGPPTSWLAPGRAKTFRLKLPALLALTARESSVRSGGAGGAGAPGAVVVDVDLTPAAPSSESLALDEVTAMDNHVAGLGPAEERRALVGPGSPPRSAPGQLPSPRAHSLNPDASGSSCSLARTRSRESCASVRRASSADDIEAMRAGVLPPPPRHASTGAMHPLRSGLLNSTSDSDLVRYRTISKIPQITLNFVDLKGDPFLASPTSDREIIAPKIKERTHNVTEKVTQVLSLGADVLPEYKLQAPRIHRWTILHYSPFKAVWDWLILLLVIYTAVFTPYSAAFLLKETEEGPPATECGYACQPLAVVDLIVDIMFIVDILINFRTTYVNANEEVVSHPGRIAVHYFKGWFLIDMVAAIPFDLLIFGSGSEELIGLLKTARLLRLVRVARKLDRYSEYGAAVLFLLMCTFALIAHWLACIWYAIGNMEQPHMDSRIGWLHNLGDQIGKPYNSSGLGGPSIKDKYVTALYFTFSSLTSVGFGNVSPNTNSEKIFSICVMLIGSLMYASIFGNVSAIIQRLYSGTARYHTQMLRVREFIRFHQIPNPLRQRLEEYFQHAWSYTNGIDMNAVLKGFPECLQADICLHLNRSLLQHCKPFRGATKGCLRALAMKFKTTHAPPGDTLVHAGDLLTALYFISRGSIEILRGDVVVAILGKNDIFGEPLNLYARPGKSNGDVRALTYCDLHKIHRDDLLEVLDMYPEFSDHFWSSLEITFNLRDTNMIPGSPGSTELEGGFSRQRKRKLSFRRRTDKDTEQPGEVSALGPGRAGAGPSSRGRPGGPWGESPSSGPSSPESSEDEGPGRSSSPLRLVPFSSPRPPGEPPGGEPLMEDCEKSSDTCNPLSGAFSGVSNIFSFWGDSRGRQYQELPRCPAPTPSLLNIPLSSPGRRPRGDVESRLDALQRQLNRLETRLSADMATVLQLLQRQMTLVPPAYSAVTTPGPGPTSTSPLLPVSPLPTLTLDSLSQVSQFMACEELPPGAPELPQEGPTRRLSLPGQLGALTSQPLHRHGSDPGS
FRK, sequence (P42685 whole entry): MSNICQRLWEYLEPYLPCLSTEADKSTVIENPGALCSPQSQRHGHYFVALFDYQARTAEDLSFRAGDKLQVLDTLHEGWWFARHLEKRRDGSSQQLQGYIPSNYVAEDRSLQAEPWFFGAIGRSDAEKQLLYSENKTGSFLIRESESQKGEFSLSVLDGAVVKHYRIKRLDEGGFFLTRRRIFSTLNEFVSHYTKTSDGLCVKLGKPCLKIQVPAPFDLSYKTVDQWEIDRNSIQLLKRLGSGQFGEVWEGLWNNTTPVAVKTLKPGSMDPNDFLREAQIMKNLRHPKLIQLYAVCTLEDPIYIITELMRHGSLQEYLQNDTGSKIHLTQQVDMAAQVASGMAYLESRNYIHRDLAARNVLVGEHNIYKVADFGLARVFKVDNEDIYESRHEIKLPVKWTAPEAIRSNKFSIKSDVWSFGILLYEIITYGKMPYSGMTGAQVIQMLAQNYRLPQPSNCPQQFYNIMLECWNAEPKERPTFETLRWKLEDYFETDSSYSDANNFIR

COC/C=C/C(=O)N1CC[C@@H](n2nc(-c3ccc(Oc4ccccc4)cc3)c(C(N)=O)c2N)C1 [SY-1530]
IC50 (hERG): 5.41 µM
Inhibition rate of maximum concentration, hERG (hERG; 30 µM): 86.75 ± 2.61%
Inhibition (%), FRK (FRK): 72%
IC50 (TMD8): 15.6 nM
Ratio, ITK (ITK; [2]): > 13
IC50 (ITK; read-out: IC50 toward ITK, HTRF): > 1 µM
Inhibition (%), PTK6 (PTK6): 92%
Inhibitory potency on tumor growth (TMD8 xenografts; 30 mg/kg BID): better inhibitory potency on tumor growth than the same dose of ibrutinib
Anti-tumor activity (TMD8 xenografts; 30 mg/kg QD): comparable to that of ibrutinib at 100 mg/kg
Inhibitory potency on tumor growth (TMD8 xenografts; 100 mg/kg QD, versus ibrutinib 100 mg/kg QD): better inhibitory potency on tumor growth than ibrutinib
Mouse bodyweight (TMD8 xenografts; BID groups): moderate decrease
Tumor growth versus vehicle treated group (TMD8 xenografts; BID, SY-1530 30 or 10 mg/kg, ibrutinib 30 mg/kg): dramatically lower
Bodyweights of mice (TMD8 xenografts; QD groups): moderately changed
Concentration in plasma (TMD8 xenografts; QD groups, 2.5 h after administration on the last day): higher than those of ibrutinib
Tumor volume (TMD8 xenografts; oral, QD, 29 days): significant decrease in tumor volumes
IC50 (T cell): > 10000 nM
Inhibition (%), FLT3 (FLT3): 68%
Ratio, BMX (BMX; IC50 SY-1530 over literature IC50 of ibrutinib): 9.4
IC50 (BMX; read-out: IC50 (nM), BMX, HTRF): 7.51 nM
Ratio, EGFR (EGFR; [2]): 225
IC50 (EGFR; read-out: IC50 (nM), EGFR, HTRF): 360 nM
IC50 (Pfeiffer): 71.4 nM
Plasma protein binding (%) [1]: 95.5%
MTD (Rat): 2000 mg/kg
MTD (Beagle dog): 1000 mg/kg
Apoptosis in Pfeiffer cells (Pfeiffer cells): induced early and late apoptosis
